Legend:
Format in all cases: cell-based, cotton (cv. Coker 130)
[1] = tested on: embryogenic cotton callus; assay: Effect of brassinolide on embryo production at 9% and 21% O2 levels
Procedure: When embryogenic callus was placed on brassinolide containing TRP+ medium (Table 9) at either 9% or 21% O2, more embryos were produced in the brassinolide treatments at 9% than at 21% O2. Lower level of 10 μM brassinolide gave the greatest response at 9% O2 but 100 μM level of brassinolide was more useful in 21% O2. […] Different levels of O2 were created by using a PRO-OX 110 oxygen control according to manufacturer's instructions (BioSpherix, Redfield, N.Y.) in a growth chamber (e.g. Percival Scientific, Inc., Perry, Iowa). Results in Table 12 indicate that brassinolide promotes the growth and development of embryos from cotton embryogenic callus.

[2] = tested on: embryogenic cotton callus; assay: Effect of brassinolide in TRP+ medium on production of embryos from embryogenic cotton callus
Procedure: A brassinosteroid plant growth regulator was used to enhance cotton embryo formation. Brassinolide (i.e. 24-epibrassinolide; Super-Grow, Montreal, Calif.), at a concentration from 2 to 100 μM was added to TRP+ medium (Table 9). Embryogenic callus from the UMO medium (Table 8) was then cultured on TRP+ medium containing Brassinolide. […] Besides an increase in the overall production of embryos, many of the embryos produced from the brassinolide treatment were 5-6 mm long heart shaped embryos (more developed), whereas there were none at this stage in the control treatment. […]

[3] = tested on: Agrobacterium-inoculated cotton hypocotyl explants; assay: Effect of ACC on embryogenic callus from transformed tissue (pMON15722, kanamycin selection)
Procedure: Addition of ACC produced a similar enhancing effect on producing embryogenic callus from transformed tissue. The hypocotyl explants were inoculated with Agrobacterium containing a plant transformation vector pMON15722 having an expression unit conferring kanamycin tolerance. The explants were pre-soaked in 2-hr in MSO glucose medium (Table 3) before inoculation. After 2 days of co-culture at about 24° C., the inoculated hypocotyl pieces were placed on WPSEL medium containing 45 mg/L of kanamycin for 4 weeks for callus induction. After callus induction, the explants were again transferred to WPSEL medium for another 4 weeks. Different concentrations of ACC were incorporated in the medium at this step.

[4] = tested on: cotton hypocotyl explants; assay: Effect of ACC during callus induction or embryogenic callus induction step
Procedure: An ethylene precursor, 1-aminocyclopropane-1-carboxylic acid (ACC) was added at the step of undifferentiated callus formation, and removed prior to embryogenesis, to speed up embryogenic callus formation.
Three studies were performed to define the effect of ACC on enhancing embryogenic callus formation. In the first experiment summarized in Table 19, hypocotyl explants were placed on UMSEL medium containing different concentrations of ACC (Treatments 2-6), or containing no ACC (treatment 7). The plates were unwrapped and placed in two separate boxes (Treatments 2-6 in one box and Treatments 7-12 in another), and cultured at 28° C. with a photoperiod of 16 hr light/8 hr darkness. After four weeks of callus induction, the calli were transferred to UMO medium without ACC (Treatments 2-6), or to UMO plus different concentrations of ACC (Treatments 8-12) for embryogenic callus induction. The plates were wrapped with PARAFILM at this stage.

[5] = 2 μM brassinolide in TRP+ medium
[6] = 5 μM brassinolide in TRP+ medium
[7] = 10 μM brassinolide in TRP+ medium
[8] = 15 μM brassinolide in TRP+ medium
[9] = ACC 0.01 mM at callus induction step (UMSEL), removed on UMO
[10] = ACC 0.1 mM at callus induction step (UMSEL)
[11] = ACC 0.5 mM at callus induction step (UMSEL)
[12] = ACC 1 mM at callus induction step (UMSEL)
[13] = ACC 5 mM at callus induction step (UMSEL)

CC(C)[C@@H](C)[C@@H](O)[C@H](O)[C@@H](C)[C@H]1CC[C@H]2[C@@H]3COC(=O)[C@H]4C[C@H](O)[C@H](O)C[C@]4(C)[C@H]3CC[C@]12C [Brassinolide, 24-epibrassinolide]
Number of Embryos Produced ([1]; 10 μM brassinolide, 9% O2, 4 weeks): 18 | Number of Embryos Produced ([1]; 10 μM brassinolide, 9% O2, 7 weeks): 30 | Number of Embryos Produced ([1]; 10 μM brassinolide, 9% O2, 9 weeks): 48 | Number of Embryos Produced ([1]; 10 μM brassinolide, 21% O2, 4 weeks): 21 | Number of Embryos Produced ([1]; 10 μM brassinolide, 21% O2, 7 weeks): 28 | Number of Embryos Produced ([1]; 10 μM brassinolide, 21% O2, 9 weeks): 21 | Number of Embryos Produced ([1]; 50 μM brassinolide, 9% O2, 4 weeks): 8 | Number of Embryos Produced ([1]; 50 μM brassinolide, 9% O2, 7 weeks): 12 | Number of Embryos Produced ([1]; 50 μM brassinolide, 9% O2, 9 weeks): 35 | Number of Embryos Produced ([1]; 50 μM brassinolide, 21% O2, 4 weeks): 10 | Number of Embryos Produced ([1]; 50 μM brassinolide, 21% O2, 7 weeks): 8 | Number of Embryos Produced ([1]; 50 μM brassinolide, 21% O2, 9 weeks): 11 | Number of Embryos Produced ([1]; 100 μM brassinolide, 9% O2, 4 weeks): 1 | Number of Embryos Produced ([1]; 100 μM brassinolide, 9% O2, 7 weeks): 9 | Number of Embryos Produced ([1]; 100 μM brassinolide, 9% O2, 9 weeks): 21 | Number of Embryos Produced ([1]; 100 μM brassinolide, 21% O2, 4 weeks): 6 | Number of Embryos Produced ([1]; 100 μM brassinolide, 21% O2, 7 weeks): 9 | Number of Embryos Produced ([1]; 100 μM brassinolide, 21% O2, 9 weeks): 33 | Brassinolide level giving the greatest response ([1]; 9% O2): 10 µM | Brassinolide level more useful ([1]; 21% O2): 100 µM | Embryo stages: 2-3 mm globules [2, 5]: 3 | Embryo stages: 5-6 mm heart shaped [2, 5]: 0 | Total embryos [2, 5]: 3 | Embryo stages: 2-3 mm globules [2, 6]: 10 | Embryo stages: 5-6 mm heart shaped [2, 6]: 8 | Total embryos [2, 6]: 18 | Embryo stages: 2-3 mm globules [2, 7]: 6 | Embryo stages: 5-6 mm heart shaped [2, 7]: 11 | Total embryos [2, 7]: 17 | Embryo stages: 2-3 mm globules [2, 8]: 6 | Embryo stages: 5-6 mm heart shaped [2, 8]: 9 | Total embryos [2, 8]: 15

NC1(C(=O)O)CC1 [ACC, 1-aminocyclopropane-1-carboxylic acid]
% Pieces w/ EC after 6 weeks on UMO medium with Kanamycin ([3]; ACC 10 μM during non-embryogenic callus growth on WPSEL): 18.4% | % Pieces w/ EC after 6 weeks on UMO medium with Kanamycin ([3]; ACC 30 μM during non-embryogenic callus growth on WPSEL): 22.1% | % Pieces w/ EC after 6 weeks on UMO medium with Kanamycin ([3]; ACC 60 μM during non-embryogenic callus growth on WPSEL): 21.6% | % Pieces w/ EC after 6 weeks on UMO medium with Kanamycin ([3]; ACC 100 μM during non-embryogenic callus growth on WPSEL): 26.5% | % Pieces w/ EC after 6 weeks on UMO medium with Kanamycin ([3]; ACC 150 μM during non-embryogenic callus growth on WPSEL): 44.0% | % EC at 7 week [4, 9]: 80% | % EC at 9 week [4, 9]: 94% | % EC at 9 week ([4]; ACC 0.01 mM at embryogenic callus induction step (UMO)): 35% | % EC at 7 week [4, 10]: 50% | % EC at 9 week [4, 10]: 90% | % EC at 9 week ([4]; ACC 0.1 mM at embryogenic callus induction step (UMO)): 5% | % EC at 7 week [4, 11]: 58% | % EC at 9 week [4, 11]: 88% | % EC at 9 week ([4]; ACC 0.5 mM at embryogenic callus induction step (UMO)): 10% | % EC at 7 week [4, 12]: 28% | % EC at 9 week [4, 12]: 62% | % EC at 9 week ([4]; ACC 1 mM at embryogenic callus induction step (UMO)): 10% | % EC at 9 week ([4]; ACC 3 mM at embryogenic callus induction step (UMO)): 0% | % EC at 7 week [4, 13]: 0% | % EC at 9 week [4, 13]: 0%

Source: patent US7947869B2, “Methods for inducing cotton embryogenic callus” (Monsanto Technology LLC, priority 2007, dated 2011)
